Test results taken from the NIST ThermoML archive (doi:10.1016/j.fluid.2007.09.001).
± gives the expanded uncertainty stated by the source.

Key:
[1] = refractive index (Na D-line) (dimensionless); conditions: 293.15 K; 101.33 kPa; Liquid; Standard Abbe refractometry
[2] = Liquid; Ebulliometric method (Recirculating still)

refractive index [1]	Normal boiling temperature [2] [°C]	Structure (SMILES)
1.4375 ± 0.0021	181.06 ± 0.5	CC(O)C(C)O (stereo not drawn) [2,3-butanediol]
1.3993 ± 0.0021	116.97 ± 0.5	CCCCO [butan-1-ol]
1.3701 ± 0.0021	77.09 ± 0.5	CCOC(C)=O [ethyl acetate]

Structure (SMILES)	refractive index [1]	Normal boiling temperature [2] [°C]
CCCCOC(C)=O [butyl ethanoate]	1.3941 ± 0.0021	125.96 ± 0.5
